Results from ChEMBL document CHEMBL6078636, “A Spatiotemporally Controlled and Mitochondria-Targeted Prodrug of Hydrogen Sulfide Enables Mild Mitochondrial Uncoupling for the Prevention of Lipid Deposition” (J Med Chem, 2024).
The source made the active and inactive calls. No cut-off for these calls is given here.

Columns and labels:
AML12 [1] = experiment: Inhibition of mitochondrial membrane potential in mouse AML12 cells under UV light-irradiation by JC-1 staining based analysis; format: functional, cell-based
AML12 [2] = experiment: Cytotoxicity against mouse AML12 cells pretreated for 24 hrs followed by UV light-irradiation for 1 min by MTT assay; format: toxicity, cell-based; conditions: aml12, 24.02 h, time 1441 min
[3] = Prodrug release in mouse AML12 cells assessed as H2S metabolite release at 10 uM incubated for 4 hrs followed by UV light-irradiation for 1 min by 2-OH-Cou probe based analysis; format: ADME, cell-based; conditions: aml12, 4.017 h, time 241 min
[4] = Prodrug conversion in mouse AML12 cells assessed as H2S metabolite release at 10 uM incubated for 4 hrs followed by UV light-irradiation for 1 min by WSP-5 probe based analysis; format: ADME, cell-based; conditions: aml12, 4.017 h, time 241 min
[5] = Prodrug conversion assessed as H2S metabolite release upto 100 uM under photo-irradiation by methylene blue dye based analysis; format: ADME
[6] = Drug uptake in mouse AML12 cells at 10 uM incubated for 4 hrs followed by UV light-irradiation for 1 min by WSP-5 probe based analysis; format: ADME, cell-based; conditions: aml12, 4.017 h, time 241 min
[7] = Prodrug conversion in mouse AML12 cells assessed as H2S metabolite release at 1 to 10 uM incubated for 4 hrs followed by UV light-irradiation for 1 min by WSP-5 probe based analysis; format: ADME, cell-based; conditions: aml12, 4.017 h, dose 1-10 µM, time 241 min
[8] = Prodrug release in mouse AML12 cells assessed as H2S metabolite release at 1 to 10 uM incubated for 4 hrs followed by UV light-irradiation for 1 min by 2-OH-Cou probe based analysis; format: ADME, cell-based; conditions: aml12, 4.017 h, dose 1-10 µM, time 241 min
AML12 [9] = experiment: Induction of mitochondrial ROS via reverse electron transport driven by sulfide quinone oxidoreductase in mouse AML12 cells assessed as increase in ratio of CoQH2/CoQ levels under photo-irradiation; format: functional, cell-based
AML12 [10] = experiment: Induction of mitochondrial ROS via reverse electron transport driven by sulfide quinone oxidoreductase in mouse AML12 cells assessed as decrease in ratio of NAD+/NADH levels under photo-irradiation; format: functional, cell-based
AML12 [11] = experiment: Induction of mitochondrial ROS via reverse electron transport driven by sulfide quinone oxidoreductase in mouse AML12 cells assessed as decrease in ratio of NAD+/NADH levels under photo-irradiation in presence of rotenone; format: functional, cell-based
AML12 [12] = experiment: Induction of mitochondrial ROS via reverse electron transport driven by sulfide quinone oxidoreductase in mouse AML12 cells under photo-irradiation by MitoSOX staining based analysis; format: functional, cell-based
AML12 [13] = experiment: Induction of H2O2 generation in mitochondria of mouse AML12 cells under photo-irradiation; format: functional
AML12 [14] = experiment: Induction of mitochondrial ROS in mouse AML12 cells harboring SQR knockdown under photo-irradiation; format: functional, cell-based
AML12 [15] = experiment: Induction of H2O2 generation in mitochondria of mouse AML12 cells harboring SQR knockdown under photo-irradiation; format: functional
AML12 [16] = experiment: Induction of mitochondrial uncoupling in oligomycin-treated mouse AML12 cells assessed as increase in OCR level at 10 uM incubated for 4 hrs followed by UV light-irradiation for 1 min under photo-irradiation; format: functional, cell-based; conditions: time 241.0 min
AML12 [17] = experiment: Induction of mitochondrial uncoupling in oligomycin-treated mouse AML12 cells assessed as decrease in intracellular ATP level incubated for 4 hrs followed by UV light-irradiation for 1 min under photo-irradiation; format: functional, cell-based; conditions: dose <= 10.0 µM, time 241.0 min
[18] = Prodrug conversion in mouse AML12 cells assessed as H2S metabolite release at 10 uM incubated for 4 hrs followed by UV light-irradiation for 1 min by […] based analysis; format: ADME, cell-based; conditions: aml12, 4 h
AML12 [19] = experiment: Inhibition of mitochondrial membrane potential in mouse AML12 cells under UV light-irradiation measured for 30 mins by TMRE staining based analysis; format: functional, cell-based
AML12 [20] = experiment: Inhibition of mitochondrial membrane potential in mouse AML12 cells under UV light-irradiation measured after 24 hrs by TMRE staining based analysis; format: functional, cell-based
AML12 [21] = experiment: Activation of mitochondrial AMPK phosphorylation in mouse AML12 cells under light irradiation by Western blot analysis; format: cell-based; conditions: filed as activator, dose <= 10.0 µM
AML12 [22] = experiment: Activation of mitochondrial AMPK in mouse AML12 cells assessed as increase in pACC level under light irradiation by Western blot analysis; format: cell-based; conditions: filed as activator, dose <= 10.0 µM
AML12 [23] = experiment: Activation of mitochondrial AMPK in mouse AML12 cells assessed as increase in pMFF level under light irradiation upto 10 uM by Western blot analysis; format: cell-based; conditions: filed as activator
AML12 [24] = experiment: Activation of mitochondrial AMPK in mouse AML12 cells harboring SQR knockdown assessed as increase in pMFF level under light irradiation at 1 to 10 uM by Western blot analysis; format: cell-based; conditions: dose 1-10 µM
AML12 [25] = experiment: Activation of mitochondrial AMPK in mouse AML12 cells assessed as increase in pMFF level under light irradiation at 1 to 10 uM in presence of rotenone by Western blot analysis; format: cell-based; conditions: dose 1-10 µM
AML12 [26] = experiment: Activation of mitochondrial AMPK signal pathway in palmitic acid-stimulated mouse AML12 cells assessed as increase in pACC level under light irradiation at 1 to 10 uM by Western blot analysis; format: cell-based; conditions: filed as activator, dose 1-10 µM
AML12 [27] = experiment: Activation of mitochondrial AMPK signal pathway in palmitic acid-stimulated mouse AML12 cells under light irradiation in presence of AMPK inhibitor by Western blot analysis; format: cell-based
AML12 [28] = experiment: Inhibition of excessive lipid deposition in mouse AML12 cells assessed as decrease in palmitic acid-induced lipid content by Oil Red O staining based analysis; format: functional, cell-based; conditions: dose 1-10 µM
AML12 [29] = experiment: Inhibition of excessive lipid deposition in mouse AML12 cells assessed as decrease in palmitic acid-induced free fatty acid at 1 to 10 uM by Oil Red O staining based analysis; format: functional, cell-based; conditions: dose 1-10 µM
AML12 [30] = experiment: Inhibition of excessive lipid deposition in mouse AML12 cells assessed as decrease in palmitic acid-induced total triglycerides at 1 to 10 uM by Oil Red O staining based analysis; format: functional, cell-based; conditions: dose 1-10 µM
AML12 [31] = experiment: Inhibition of excessive lipid deposition in mouse AML12 cells assessed as decrease in palmitic acid-induced total cholesterol at 1 to 10 uM by Oil Red O staining based analysis; format: functional, cell-based; conditions: dose 1-10 µM

For Oc1ccc(-c2cc(=S)ss2)cc1, the inhibition (AML12 [1]) was “inactive”.
In the case of Cc1cc(C)c(C(C)(C)CC(=O)S)c(OC(=O)OCc2cc3ccc(OCc4ccccc4[N+](=O)[O-])cc3oc2=O)c1, the Activity (AML12 [2]) is reported as “Non-toxic”, the Drug metabolism [3] is reported as “metabolite_notdetected” and the inhibition (AML12 [1]) is reported as “inactive”.
With O=C(CCCCCCCCC[P+](c1ccccc1)(c1ccccc1)c1ccccc1)Oc1ccc(-c2cc(=S)ss2)cc1.[Br-] the Drug metabolism [4] was “metabolite_detected” and the inhibition (AML12 [1]) was “inactive”.
For Cc1cc(C)c(C(C)(C)CC(=O)S)c(OC(=O)OCc2cc3ccc(OCc4cc(OCCCC[P+](c5ccccc5)(c5ccccc5)c5ccccc5)ccc4[N+](=O)[O-])cc3oc2=O)c1, the Activity [5] was “Active”, the Activity (AML12 [2]) was “Non-toxic” and the Drug uptake [6] was 100%. The Drug metabolism [3] was “metabolite_detected”, the Drug metabolism [7] was “metabolite_detected” and the Drug metabolism [8] was “metabolite_detected”. For the same molecule, the Activity (AML12 [9]) was “Active”, the Activity (AML12 [10]) was “Active” and the Activity (AML12 [11]) was “inactive”. For the same molecule, the Activity (AML12 [12]) was “Active”, the Activity (AML12 [13]) was “Active” and the Activity (AML12 [14]) was “Active”. The Activity (AML12 [15]) was “Active”, the Activity (AML12 [16]) was “Active” and the Activity (AML12 [17]) was “Dose-dependent-effect; Activity Superior To M2, Ap39, Adt-Oh”. For the same molecule, the inhibition (AML12 [1]) was “inactive”, the Drug metabolism [18] was “metabolite_detected” and the inhibition (AML12 [19]) was “Active”. For the same molecule, the inhibition (AML12 [20]) was “inactive”, the Activity (AML12 [21]) was “Dose-dependent-effect; Exhibited More Potency Than Ap39 And Adt-Oh” and the Activity (AML12 [22]) was “Dose-dependent-effect; Exhibited More Potency Than Ap39 And Adt-Oh”. For the same molecule, the Activity (AML12 [23]) was “Active”, the Activity (AML12 [24]) was “inactive” and the Activity (AML12 [25]) was “inactive”. For the same molecule, the Activity (AML12 [26]) was “Active; Exhibited More Potency Than Ap39 And Adt-Oh”, the Activity (AML12 [27]) was “inactive” and the inhibition (AML12 [28]) was “Dose-dependent-effect; Exhibited As More Effective Than Ap39 And Adt-Oh”. For the same molecule, the inhibition (AML12 [29]) was “Active”, the inhibition (AML12 [30]) was “Active” and the inhibition (AML12 [31]) was “Active”.
